According to patent US20240293392A1, “INHIBITOR COMPOUNDS” (NeoPhore Limited, priority 2021, published 2024):

Tests used:
[1] = molecular target: T1, recombinant N-terminal MLH1 (residues 15-340) (Homo sapiens, UniProt P40692); test: Fluorescence Polarisation Assay for MLH1; type: binding; conditions: fluorescence polarisation probe displacement; 100 nM N-terminal MLH1, 5 nM probe compound
T1 construct: recombinant N-terminal MLH1 (residues 15-340)
T1 sequence (P40692 15-340): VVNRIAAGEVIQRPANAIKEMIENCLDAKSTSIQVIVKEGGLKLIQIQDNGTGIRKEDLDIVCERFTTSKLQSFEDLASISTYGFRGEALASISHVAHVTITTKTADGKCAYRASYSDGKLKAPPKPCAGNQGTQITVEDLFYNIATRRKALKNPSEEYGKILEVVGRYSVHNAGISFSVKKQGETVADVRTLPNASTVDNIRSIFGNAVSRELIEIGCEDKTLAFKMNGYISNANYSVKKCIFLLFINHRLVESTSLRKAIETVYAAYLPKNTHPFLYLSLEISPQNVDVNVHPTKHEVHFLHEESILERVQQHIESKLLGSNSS
Procedure, shortened: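 FP displacement assay: 100 nM MLH1 (residues 15-340) preincubated 30 min at room temperature with compound in 25 mM HEPES pH 7.5, 250 mM NaCl, 10 mM MgCl2, 0.01% Triton X-100, 5 mM DTT, then 5 nM rhodamine-labelled probe added and read immediately. Data normalised to no-inhibitor and no-enzyme controls.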

[2] = molecular target: T2, recombinant N-terminal PMS2 (residues 1-365) (Homo sapiens, UniProt P54278); test: Fluorescence Polarisation Assay for PMS2; type: binding; conditions: fluorescence polarisation probe displacement; 10 nM N-terminal PMS2, 5 nM probe compound; read-out: PMS2 IC50
T2 construct: recombinant N-terminal PMS2 (residues 1-365)
T2 sequence (P54278 1-365): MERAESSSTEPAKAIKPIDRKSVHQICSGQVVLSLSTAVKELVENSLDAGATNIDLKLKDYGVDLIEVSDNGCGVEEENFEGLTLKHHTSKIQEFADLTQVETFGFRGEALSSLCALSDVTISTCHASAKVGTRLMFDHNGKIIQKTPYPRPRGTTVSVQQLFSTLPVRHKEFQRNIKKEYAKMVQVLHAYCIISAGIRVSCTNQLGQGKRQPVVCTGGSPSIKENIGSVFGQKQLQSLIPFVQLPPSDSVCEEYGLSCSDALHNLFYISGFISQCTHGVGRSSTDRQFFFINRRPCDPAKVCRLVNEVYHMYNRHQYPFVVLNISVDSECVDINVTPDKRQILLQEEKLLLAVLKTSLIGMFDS
Procedure, shortened: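 Competition fluorescence polarisation with 10 nM N-terminal PMS2 and 5 nM fluorescent probe (final), read after 1 h at room temperature following 30 min compound pre-incubation. Data normalised to no-inhibitor and no-enzyme controls; single-point screening or serial dilutions for potency.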

| Structure (SMILES) | IC50 [1] | IC50 [2] |
| --- | --- | --- |
| COc1ccc2c(c1)CN(C(=O)c1c(O)cc(O)cc1OCc1ccccc1)CC2 [Example 49, (2-Benzyloxy-4,6-dihydroxy-phenyl)-(7-methoxy-3,4-dihydro-1H-isoquinolin-2-yl)methanone] | 1 to 10 µM | 1 to 10 µM |
| CC12CC(Nc3cccc4c3CN(C(=O)c3c(O)cc(O)cc3OCc3ccccc3)C4)(CO1)C2 [Example 52, (2-(Benzyloxy)-4,6-dihydroxyphenyl)(4-((1-methyl-2-oxabicyclo[2.1.1]hexan-4-yl)amino)isoindolin-2-yl)methanone] | < 1 µM | 1 to 10 µM |
| O=C(c1c(O)cc(O)cc1OCc1ccccc1)N1Cc2cccc(NC34CCC(C3)OC4)c2C1 (centres unmarked) [Example 53, (4-((2-Oxabicyclo[2.2.1]heptan-4-yl)amino)isoindolin-2-yl)(2-(benzyloxy)-4,6-dihydroxyphenyl)methanone] | < 1 µM | 1 to 10 µM |
| CC(=O)N1CC[C@H](Nc2cccc3c2CN(C(=O)c2c(O)cc(O)cc2OCc2ccccc2)CC3)C1 [Example 65, (S)-1-(3-((2-(2-(Benzyloxy)-4,6-dihydroxybenzoyl)-1,2,3,4-tetrahydroisoquinolin-8-yl)amino)pyrrolidin-1-yl)ethan-1-one] | < 1 µM | > 10 µM |
| CC(=O)N1CC[C@@H](Nc2cccc3c2CN(C(=O)c2c(O)cc(O)cc2OCc2ccccc2)CC3)C1 [Example 66, (R)-1-(3-((2-(2-(Benzyloxy)-4,6-dihydroxybenzoyl)-1,2,3,4-tetrahydroisoquinolin-8-yl)amino)pyrrolidin-1-yl)ethan-1-one] | < 1 µM | > 10 µM |
| CC(=O)N1CCC[C@H](Nc2cccc3c2CN(C(=O)c2c(O)cc(O)cc2OCc2ccccc2)CC3)C1 [Example 67, (S)-1-(3-((2-(2-(Benzyloxy)-4,6-dihydroxybenzoyl)-1,2,3,4-tetrahydroisoquinolin-8-yl)amino)piperidin-1-yl)ethan-1-one] | 1 to 10 µM | > 10 µM |
| CC(=O)N1CCC[C@@H](Nc2cccc3c2CN(C(=O)c2c(O)cc(O)cc2OCc2ccccc2)CC3)C1 [Example 68, (R)-1-(3-((2-(2-(benzyloxy)-4,6-dihydroxybenzoyl)-1,2,3,4-tetrahydroisoquinolin-8-yl)amino)piperidin-1-yl)ethan-1-one] | < 1 µM | > 10 µM |
| CC(=O)N1CCC(Nc2cccc3c2CN(C(=O)c2c(O)cc(O)cc2OCc2ccccc2)CC3)CC1 [Example 69, 1-(4-((2-(2-(Benzyloxy)-4,6-dihydroxybenzoyl)-1,2,3,4-tetrahydroisoquinolin-8-yl)amino)piperidin-1-yl)ethan-1-one] | 1 to 10 µM | > 10 µM |
| O=C(c1c(O)cc(O)cc1OCc1ccccc1)N1CCc2cccc(Nc3cncnc3)c2C1 [Example 71, (2-(Benzyloxy)-4,6-dihydroxyphenyl)(8-(pyrimidin-5-ylamino)-3,4-dihydroisoquinolin-2(1H)-yl)methanone] | < 1 µM | 1 to 10 µM |
| NC(=O)c1cccc(Nc2cccc3c2CN(C(=O)c2c(O)cc(O)cc2OCc2ccccc2)CC3)c1 [Example 74, 3-((2-(2-(Benzyloxy)-4,6-dihydroxybenzoyl)-1,2,3,4-tetrahydroisoquinolin-8-yl)amino)benzamide] | > 10 µM | > 10 µM |
| NC(=O)c1ccc(Nc2cccc3c2CN(C(=O)c2c(O)cc(O)cc2OCc2ccccc2)CC3)cc1 [Example 75, 4-((2-(2-(Benzyloxy)-4,6-dihydroxybenzoyl)-1,2,3,4-tetrahydroisoquinolin-8-yl)amino)benzamide] | > 10 µM | > 10 µM |
| CNCc1cccc2c1CN(C(=O)c1c(O)cc(O)cc1OCc1ccccc1)C2 [Example 79, (2-(Benzyloxy)-4,6-dihydroxyphenyl) (4-((methylamino)methyl)isoindolin-2-yl) methanone] | 1 to 10 µM | 1 to 10 µM |

Next, values leading:

| IC50 [1] | IC50 [2] | Structure (SMILES) |
| --- | --- | --- |
| < 1 µM | 1 to 10 µM | COc1cc2c(c(NC3CCOC3)c1)CN(C(=O)c1c(O)cc(O)cc1OCc1ccccc1)CC2 (centres unmarked) [Example 54, (2-(Benzyloxy)-4,6-dihydroxyphenyl)(6-methoxy-8-((tetrahydrofuran-3-yl)amino)-3,4-dihydroisoquinolin-2(1H)-yl)methanone] |
| < 1 µM | 1 to 10 µM | O=C(c1c(O)cc(O)cc1OCc1ccccn1)N1CCc2cccc(N[C@H]3CCOC3)c2C1 [Example 55, (S)-(2,4-Dihydroxy-6-(pyridin-2-ylmethoxy)phenyl)(8-((tetrahydrofuran-3-yl)amino)-3,4-dihydroisoquinolin-2(1H)-yl)methanone] |
| < 1 µM | > 10 µM | O=C(c1c(O)cc(O)cc1OCc1ccccn1)N1CCc2cccc(N[C@@H]3CCOC3)c2C1 [Example 56, (R)-(2,4-dihydroxy-6-(pyridin-2-ylmethoxy)phenyl)(8-((tetrahydrofuran-3-yl)amino)-3,4-dihydroisoquinolin-2(1H)-yl)methanone] |
| < 1 µM | > 10 µM | O=C(c1c(O)cc(O)cc1OCc1ccccn1)N1CCc2cccc(NC3COC3)c2C1 [Example 57, (2,4-Dihydroxy-6-(pyridin-2-ylmethoxy)phenyl)(8-(oxetan-3-ylamino)-3,4-dihydroisoquinolin-2(1H)-yl)methanone] |
| < 1 µM | > 10 µM | CN1C[C@@H](Nc2cccc3c2CN(C(=O)c2c(O)cc(O)cc2OCc2ccccn2)CC3)CC1=O [Example 58, (S)-4-((2-(2,4-Dihydroxy-6-(pyridin-2-ylmethoxy)benzoyl)-1,2,3,4-tetrahydroisoquinolin-8-yl)amino)-1-methylpyrrolidin-2-one] |
| < 1 µM | 1 to 10 µM | CN1C[C@H](Nc2cccc3c2CN(C(=O)c2c(O)cc(O)cc2OCc2ccccn2)CC3)CC1=O [Example 59, (R)-4-((2-(2,4-dihydroxy-6-(pyridin-2-ylmethoxy)benzoyl)-1,2,3,4-tetrahydroisoquinolin-8-yl)amino)-1-methylpyrrolidin-2-one] |
| < 1 µM | > 10 µM | COCCOc1cc2c(c(N[C@@H]3CCOC3)c1)CN(C(=O)c1c(O)cc(O)cc1OCc1ccccc1)CC2 [Example 60, (R)-(2-(Benzyloxy)-4,6-dihydroxyphenyl)(6-(2-methoxyethoxy)-8-((tetrahydrofuran-3-yl)amino)-3,4-dihydroisoquinolin-2(1H)-yl)methanone] |
| < 1 µM | 1 to 10 µM | O=C(c1c(O)cc(O)cc1OCc1ccccc1)N1CCc2nccc(N[C@H]3CCOC3)c2C1 [Example 63, (S)-(2-(Benzyloxy)-4,6-dihydroxyphenyl)(4-((tetrahydrofuran-3-yl)amino)-7,8-dihydro-1,6-naphthyridin-6(5H)-yl)methanone] |
| < 1 µM | 1 to 10 µM | COCCOc1cc2c(c(N[C@H]3CCOC3)c1)CN(C(=O)c1c(O)cc(O)cc1OCc1ccccc1)CC2 [Example 64, (S)-(2-(Benzyloxy)-4,6-dihydroxyphenyl)(6-(2-methoxyethoxy)-8-((tetrahydrofuran-3-yl)amino)-3,4-dihydroisoquinolin-2(1H)-yl)methanone] |
| < 1 µM | > 10 µM | CN1CC(Nc2cccc3c2CN(C(=O)c2c(O)cc(O)cc2OCc2ccccc2)CC3)CCC1=O (centres unmarked) [Example 70, 5-((2-(2-(Benzyloxy)-4,6-dihydroxybenzoyl)-1,2,3,4-tetrahydroisoquinolin-8-yl)amino)-1-methylpiperidin-2-one] |
| 1 to 10 µM | > 10 µM | O=C(c1c(O)cc(O)cc1OCc1ccccc1)N1CCc2cccc(NC3CCCC3)c2C1 [Example 76, (2-(Benzyloxy)-4,6-dihydroxyphenyl)(8-(cyclopentylamino)-3,4-dihydroisoquinolin-2(1H)-yl)methanone] |
| > 10 µM | > 10 µM | CN1CCC(Nc2cccc3c2CN(C(=O)c2c(O)cc(O)cc2OCc2ccccc2)CC3)CC1 [Example 77, (2-(Benzyloxy)-4,6-dihydroxyphenyl)(8-((1-methylpiperidin-4-yl)amino)-3,4-dihydroisoquinolin-2(1H)-yl)methanone] |
| < 1 µM | > 10 µM | CN1CCC(Nc2cccc3c2CN(C(=O)c2c(O)cc(O)cc2OCc2ccccc2)CC3)C1 (centres unmarked) [Example 78, (2-(Benzyloxy)-4,6-dihydroxyphenyl)(8-((1-methylpyrrolidin-3-yl)amino)-3,4-dihydroisoquinolin-2(1H)-yl)methanone] |
